Data set [1] in a line: Solubility in water, ethanol and organic solvents. The data set is classed as physicochemical.
The conditions of data set [2]: under some pH conditions, compared with aspartame; cited from earlier work.
The conditions of data set [3]: relative to sucrose; cited from earlier work.

Residues, ends and D or L forms follow the SMILES beside them.

Take `COC(=O)[C@H](Cc1ccccc1)NC(=O)[C@@H](N)CC(=O)O` [aspartame, reference compound] (H-Asp-Phe-OMe): the solubility in ethanol entry in data set [1] was “less than 0.1%”.
With `COC(=O)[C@H](Cc1ccccc1)NC(=O)[C@H](CC(=O)O)NCCC(C)(C)C` [N-[N-(3,3-dimethylbutyl)-L-α-aspartyl]-L-phenylalanine 1-methyl ester], in data set [2], the stability result is listed as “higher stability than aspartame”. Moreover, the “solubility in organic solvents” value in data set [1] (compared with aspartame) is on record as “much higher solubility in organic solvents than aspartame”. In addition, in data set [1], the solubility in ethanol result was “greater than 100 g/100 ml”. The solubility in water result in data set [1] (water) is “about 1%”. For the same compound, in data set [3], the sweetening potency entry was “about 8,000 times”.

Values taken from patent publication US6365217B2, “N-[N-(3,3-dimethylbutyl)-L-α-aspartyl]-L-phenylalanine 1-methyl ester agglomerate” (The Nutra Sweet Company, priority 1999, dated 2002).
